The text below walks through data of publication PMC10377353, “Targeted Destruction of S100A4 Inhibits Metastasis of Triple Negative Breast Cancer Cells” (Biomolecules, 2023).

SMILES strings stand for the structures.

In this assay the target is T1, S100A4 (Homo sapiens, UniProt P26447).
T1 construct: recombinant human (rh)S100A4, pET-15b, E. coli BL21 (DE3); with nonmuscle myosin IIA C-terminal fragment (rC-NMIIA, 149 terminal amino acids)
Description: resonant mirror biosensor (SPR-type), inhibition of rhS100A4 binding to immobilised rC-NMIIA.

T1 sequence (P26447 2-101): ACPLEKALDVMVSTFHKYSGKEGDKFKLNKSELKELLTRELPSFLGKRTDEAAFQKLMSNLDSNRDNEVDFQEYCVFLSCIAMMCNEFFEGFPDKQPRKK
T1 sequence (P35579 2-1960 partner): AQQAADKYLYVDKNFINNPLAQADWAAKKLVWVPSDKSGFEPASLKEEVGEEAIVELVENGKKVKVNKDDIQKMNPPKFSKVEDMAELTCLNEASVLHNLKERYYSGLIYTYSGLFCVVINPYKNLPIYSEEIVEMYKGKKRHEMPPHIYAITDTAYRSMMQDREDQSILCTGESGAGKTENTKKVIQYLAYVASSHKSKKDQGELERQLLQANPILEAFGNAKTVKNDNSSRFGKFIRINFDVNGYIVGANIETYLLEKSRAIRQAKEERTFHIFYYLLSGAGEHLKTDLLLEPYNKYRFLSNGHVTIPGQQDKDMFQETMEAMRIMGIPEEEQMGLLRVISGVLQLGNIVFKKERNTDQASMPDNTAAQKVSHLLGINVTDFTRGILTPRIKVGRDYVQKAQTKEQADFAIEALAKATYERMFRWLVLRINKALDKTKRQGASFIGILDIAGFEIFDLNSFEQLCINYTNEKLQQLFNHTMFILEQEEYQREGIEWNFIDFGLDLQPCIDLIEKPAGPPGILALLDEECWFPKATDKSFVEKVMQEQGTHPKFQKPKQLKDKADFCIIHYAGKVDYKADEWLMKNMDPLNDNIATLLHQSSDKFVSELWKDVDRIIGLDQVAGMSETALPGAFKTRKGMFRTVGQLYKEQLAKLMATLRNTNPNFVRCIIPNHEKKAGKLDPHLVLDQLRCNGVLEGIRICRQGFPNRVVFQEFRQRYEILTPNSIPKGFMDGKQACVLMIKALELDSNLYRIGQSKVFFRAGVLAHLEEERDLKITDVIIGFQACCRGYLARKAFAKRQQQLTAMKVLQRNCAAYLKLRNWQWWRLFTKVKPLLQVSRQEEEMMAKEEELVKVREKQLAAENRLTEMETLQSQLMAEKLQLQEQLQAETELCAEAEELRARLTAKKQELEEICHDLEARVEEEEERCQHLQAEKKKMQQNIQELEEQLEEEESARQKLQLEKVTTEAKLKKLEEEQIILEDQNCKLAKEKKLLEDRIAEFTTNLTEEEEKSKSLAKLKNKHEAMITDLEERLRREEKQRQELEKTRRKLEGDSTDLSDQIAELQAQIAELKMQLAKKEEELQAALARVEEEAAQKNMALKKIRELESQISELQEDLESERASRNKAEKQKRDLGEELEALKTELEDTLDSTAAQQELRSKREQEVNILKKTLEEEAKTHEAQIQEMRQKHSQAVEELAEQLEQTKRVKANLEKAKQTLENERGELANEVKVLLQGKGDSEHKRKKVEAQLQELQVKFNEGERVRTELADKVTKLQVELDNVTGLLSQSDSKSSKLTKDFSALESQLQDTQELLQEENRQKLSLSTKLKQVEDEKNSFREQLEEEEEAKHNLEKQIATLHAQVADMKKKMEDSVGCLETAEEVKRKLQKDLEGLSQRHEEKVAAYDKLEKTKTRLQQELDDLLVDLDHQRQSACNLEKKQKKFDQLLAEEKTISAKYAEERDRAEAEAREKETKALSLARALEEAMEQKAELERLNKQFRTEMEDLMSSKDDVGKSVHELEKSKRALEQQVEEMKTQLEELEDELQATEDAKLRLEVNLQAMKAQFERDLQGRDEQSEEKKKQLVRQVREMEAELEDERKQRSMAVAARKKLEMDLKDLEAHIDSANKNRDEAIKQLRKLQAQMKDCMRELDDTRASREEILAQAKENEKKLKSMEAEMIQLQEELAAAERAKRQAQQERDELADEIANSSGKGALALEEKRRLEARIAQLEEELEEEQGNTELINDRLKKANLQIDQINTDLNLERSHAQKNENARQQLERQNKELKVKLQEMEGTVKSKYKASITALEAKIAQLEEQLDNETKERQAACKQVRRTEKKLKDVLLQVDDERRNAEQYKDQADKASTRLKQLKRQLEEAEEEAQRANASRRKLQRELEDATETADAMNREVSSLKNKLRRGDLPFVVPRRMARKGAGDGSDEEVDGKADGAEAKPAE

A word on the inhibition: it is the change of the read-out against control, counted positive when it falls. A high value points to a response far below the control. In turn, `COC1(OC)[C@@]2(Cl)C(Cl)=C(Cl)[C@]1(Cl)[C@@H]1C(=O)N(c3ccccc3C)C(=O)[C@@H]12` [CT070909] returned an inhibition at 33 µM above 90%.
